The values below come from patent publication US7803811B2, “1,2,3-substituted indolizine derivatives, inhibitors of FGFs, method for preparing them and pharmaceutical compositions containing them” (Sanofi-Aventis, priority 2002, dated 2010).

Molecules are shown by their SMILES.

For orientation: melting point means the temperature, or range, at which the solid turns liquid. Turning to `COc1cc(C(=O)c2c(C)c(OCCO)c3ccccn23)ccc1[N+](=O)[O-]` [Example 80, [1-(2-Hydroxyethoxy)-2-methylindolizin-3-yl](3-methoxy-4-nitrophenyl)methanone], the melting point worked out at 142 °C.
